# Assay results from patent EP1095025B1, “BENZIMIDAZOLES, PRODUCTION THEREOF AND USE THEREOF AS MEDICAMENTS” (Boehringer Ingelheim Pharma KG, priority 1998, dated 2000).
# Structures can show the parent of a compound that is named as a salt.
# Test system: humanem Citrat-Plasma
# Test: aPTT time prolongation in plasma (Biomatic B10 coagulometer)
# Type: biochemical
# Details: effective substance concentration, from a dose-response curve, at which the aPTT time is doubled versus control; human citrate plasma, 37°C
row,SMILES,aPTT-Zeit (ED200 in µM) [µM]
1,"CN(CC(C)(C(=O)N1CCCC1)c1ccc2c(c1)nc(CNc1ccc(C(=N)N)cc1)n2C)C(=O)CC(=O)O (stereo not shown) [G, 2-(4-Amidinophenylaminomethyl)-1-methyl-5-[1-(N-methylcarboxymethylcarbonylaminomethyl)-1-methyl-1-(pyrrolidin-1-yl-carbonyl)-ethyl]-benzimidazol-dihydrochlorid]",0.17
2,"Cl.Cn1c(CNc2ccc(C(=N)N)cc2)nc2cc(C(C)(NCCC(=O)O)C(=O)N3CCCC3)ccc21 (stereo not shown) [C, 2-(4-Amidinophenylaminomethyl)-1-methyl-5-[1-(2-carboxyethylamino)-1-(pyrrolidin-1-yl-carbonyl)-ethyl]-benzimidazol-hydrochlorid]",0.31
3,"Cl.Cn1c(CNc2ccc(C(=N)N)cc2)nc2cc(C3(C(=O)N4CCCC4)CC3)ccc21 [A, 2-(4-Amidinophenylaminomethyl)-1-methyl-5-[1-(pyrrolidin-1-yl-carbonyl)cyclopropyl]-benzimidazol-hydrochlorid]",0.12
4,"Cn1c(CNc2ccc(C(=N)N)cc2)nc2cc(C3(C(=NOCC(=O)O)c4ccccn4)CC3)ccc21 (mixture of isomers) [B, (E/Z)-2-(4-Amidinophenylaminomethyl)-1-methyl-5-[1-[(pyridin-2-yl)-(carboxymethyloxyimino)methylen]cyclopropyl]-benzimidazol-hydrochlorid]",0.42
5,"Cl.Cn1c(CNc2ccc(C(=N)N)cc2)nc2cc(C(C)(NCC(=O)O)C(=O)N3CCCC3)ccc21 (stereo not shown) [F, 2-(4-Amidinophenylaminomethyl)-1-methyl-5-[1-(carboxymethylamino)-1-(pyrrolidin-1-yl-carbonyl)-ethyl]-benzimidazol-hydrochlorid]",0.20
6,"Cc1nc(CCC(=O)O)n(Cc2ccc3c(c2)nc(CNc2ccc(C(=N)N)cc2)n3C)c1C.Cl [E, 2-(4-Amidinophenylaminomethyl)-1-methyl-5-[2-(2-carboxyethyl)-4,5-dimethyl-imidazol-1-yl-methyl]-benzimidazol-hydrochlorid]",0.29
7,"Cl.Cn1c(CNc2ccc(C(=N)N)cc2)nc2cc(C3(C(=O)N4CCCC4CCC(=O)O)CC3)ccc21 (stereo not shown) [D, 2-(4-Amidinophenylaminomethyl)-1-methyl-5-[1-[2-(2-carboxyethyl)-pyrrolidin-1-yl-carbonyl]cyclopropyl]-benzimidazol-hydrochlorid]",0.29
